For one series, the system named is HSV-2, strain MS. Kind of series: In vivo anti-HSV efficacy, prophylactic guinea pig model of HSV infection. To be noted: 60 mg per kg subcutaneously, T.I.D., 10 days, first dose 24 hrs before infection. How it is done:
The in vivo assessment of anti-HSV efficacy was determined in the prophylactic guinea pig model of HSV infection described by Stansberry et al (1982). Dosing of guinea pigs was comprised of an initial treatment with test compound given 24 hrs prior to virus infection and subsequent administration of the compound every eight hours (T.I.D.) for a total of 10 days. Test compounds were administered subcutaneously in 0.5% buffered methyl cellulose at a dose of 60 mg per kg body weight of the animal. Animals were monitored daily for the developement of genital lesions and neurological symptomology, both of which were recorded and compared to the results obtained with parallel groups which received placebo or acyclovir treatment. Efficacy was evaluated for each compound by scoring the ability of the compound to ameliorate genital lesions produced by infection with HSV-2, strain MS, expressed as Maximum Lesion scores (MLS) on a scale of 1 (least lesions) to 4 (severe lesions).

Series [1] is described as follows: Cytotoxicity, 3H-LEU assay (inhibition of HeLa cell translation). Type of series: cell-based. The note with it: human; HeLa cells, tritiated leucine incorporation after overnight/24 hrs treatment; read-out: CYTOTOXICITY 3H-LEU ASSAY IC50. How it is done:
HeLa cells were treated with inhibitory compound for 24 hrs, after which levels of translational activity were assayed.
For assay of translational activity, HeLa cultures were grown to 80% confluency in 96 well microtiter plates, treated with appropriate concentrations of compound in 2% EMEM during an overnight incubation at 37° C., then rinsed with HBSS and overlaid with […] of 2% EMEM containing 8 uCi of tritiated leucine (^3 H-LEU, 141 Cu/mMol, Amersham Corp., Arlington Heights Ill.). After a 1 hr incubation at 36.5° C., the cells were rinsed twice with phosphate buffered saline (PBS) and lysed in 400 ul/well of 1×PBS, 0.5% sodium dodecyl sulphate (SDS). After a 10 min incubation at 36.5° C., the contents of the well were transferred to a well in a Millititer HA microfiltration plate (Millipore Corp., Bedford, Mass.). The TCA insoluble proteins were precipitated onto the filter disc by a 10 min fixation with 5% TCA, followed by filtration under vacuum and three 10 minute rinse with 95% ethanol. The filters were dried at room temperature, cut from the milltitier plate and transferred to scintillation vials. TCA precipitable counts were assayed in 5 ml of Scintisol (Isolab, Akron, Ohio). The inhibitory activity of a compound was plotted versus the concentration and an IC50 value (that concentration of the compound required to decrease cellular translational activity by 50%) was derived for each compound.

The subject of the next series is HSV-2 (strain MS). Put plainly: HSV-β-GAL assay (transient expression of beta galactosidase in transfected HeLa cells superinfected with HSV-2). It is filed as cell-based. The note with it: HeLa cells transfected with pON 245^ori-, moi=5 pfu/cell, more than one number = additional tests; for IC50: Human alphaherpesvirus 2, HeLa, 24 h, read-out: ANTI-HSV ACTIVITY HSV-β-GAL ASSAY IC50. How it is done: HeLa and Vero cell cultures were maintained in Eagles Minimal Essential Medium which was supplemented with glutamine, penicillin, streptomycin and 10% fetal calf serum (10% EMEM). Stock cultures of HSV-2 (strain MS available from ATCC VR-540) were grown in and harvested from Vero cells. Viral stocks were titered in Vero cells according to established procedures.
Plasmid pON 245^ori- contains the promoter of the HSV-1 thymidine kinase (tk) gene located immediately 5' of the E. coli lac Z gene. In this arrangement, the tk promoter controls transcription from the bacterial gene in transient expression assays. Additionally, an SV40 polyadenylation signal is present at the 3' end of the lac Z gene to allow for the efficient translation of the mRNA in eucaryotic cells. The expression of beta galactosidase in a transient assay using pON 245^ori- is dependent upon superinfection of the transfected cells with HSV. […] For example, see U.S. application Ser. No. 07/435,491 filed Sep. 5, 1989, the disclosure of which is incorporated herein by reference thereto.
HeLa cells were seeded into 96 well microtiter plates and allowed to grow to 80% confluency (approximately 35000 cells/well). One half microgram of plasmid pON 245^ori- DNA was introduced into the cells of each well by the […] precipitation technique (Grahman and Van der Eb, 1973). Four to six hours later, the cells were rinsed with Hank's Balanced Salt Solution (HBSS), overlaid with 10% EMEM and incubated at 37° C. At 24 hrs post-transfection, cells were rinsed, overlaid with 10% EMEM again and re-incubated at 37° C. At 48 hrs. post-transfection, cells were rinsed and overlaid with either EMEM containing 2% fetal calf serum (2% EMEM), 2% EMEM containing HSV-2 (strain MS, Multiplicity of Infection [moi]=5 pfu/cell) or 2% EMEM containing HSV-2 and the appropriate concentration of the compound to be tested. Twenty-four hrs later, the cells were harvested and assayed for beta galactosidase activity as described below.
All determinations of beta galactosidase activity were performed in 96 well microtiter plates. The intracellar level of beta galactosidase activity in each well was determined from cell lysates of the monolayer cultures. Aliquots were assayed by incubation in the presence of beta galactosidase substrate, 4-methylumbelliferyl-β-D-galactoside (MUG, 125 ug/ml, Sigma), for 2 hrs. The generation of fluorescent product was quantified on a Microfluor microfluorimeter (Dynatech) after addition of 0.1M glycine, pH 10.3 (Spaete and Mocarski, 1985). The inhibitory activity of a compound was plotted versus the concentration and an IC50 value (the concentration of compound required to reduce beta glactosidase expression by 50%) was obtained for each compound tested.

By IC50 is commonly meant the concentration at which inhibition is half-maximal.

For the compound `CCCCCCCN1C(=O)C(=NO)C(=O)c2ccccc21` [Formula 1.04], in the series with HSV-2, strain MS, the “In-vivo anti-HSV activity (genital lesions, Maximum Lesion score)” value is “inactive”. Also, in series [1], the CC50 at 24 h was found to be 37 µg/mL. Moreover, the “ANTI-HSV ACTIVITY HSV-β-GAL ASSAY IC50” value in the series with HSV-2 (strain MS) (24 hrs) is 2.5 µg/mL. Further, the IC50 in the series with HSV-2 (strain MS) is below 3 µg/mL.

As for `O=C1C(=NO)C(=O)N(Cc2ccccc2)c2ccccc21` [Formula 1.03], in series [1], the CC50 at 24 h amounted to 40 µg/mL. Also, the IC50 with HSV-2 (strain MS) came to 7 µg/mL.

As for `CN1C(=O)C(=NO)C(=O)c2ccccc21` [Formula 1.02], the CC50 at 24 h in series [1] stood at 27 µg/mL. For the same compound, the IC50 with HSV-2 (strain MS) was determined as 7 µg/mL.

Source of the values: patent publication US5190956A, “Certain N-substituted 3-oximino-2,4-dioxoquinolin-2,4-(1H)diones useful for treating viral infections” (Schering Corporation, priority 1990, dated 1993).
